biological target: T1, PD-1/PD-L1 (Homo sapiens, UniProt Q9NZQ7); assay: PD-1/PD-L1 Homogeneous Time-Resolved Fluorescence (HTRF) Binding Assay; settings: PD-1/PD-L1 HTRF activity; 3 nM PD1, 10 nM PD-L1, 25° C.
T1 construct: Recombinant human PD-L1 protein (19-238) with a Histag at the C-terminus; purchased AcroBiosystems PD1-H5229 (PD-L1); PD1-H5257 (PD-1)
Description: Example 107. PD-1/PD-L1 Homogeneous Time-Resolved Fluorescence (HTRF) Binding Assay
The assays were conducted in a standard black 384-well polystyrene plate with a final volume of 20 μL. Inhibitors were first serially diluted in DMSO and then added to the plate wells before the addition of other reaction components. The final concentration of DMSO in the assay was 1%. The assays were carried out at 25° C. in the PBS buffer (pH 7.4) with 0.05% Tween-20 and 0.1% BSA. Recombinant human PD-L1 protein (19-238) with a Histag at the C-terminus was purchased from AcroBiosystems (PD1-H5229). Recombinant human PD-1 protein (25-167) with Fe tag at the C-terminus was also purchased from AcroBiosystems (PD1-H5257). PD-L1 and PD-1 proteins were diluted in the assay buffer and 10 μL was added to the plate well. Plates were centrifuged and proteins were preincubated with inhibitors for 40 minutes. The incubation was followed by the addition of 10 μL of HTRF detection buffer supplemented with Europium cryptate-labeled anti-human IgG (PerkinElmer-AD0212) specific for Fe and anti-His antibody conjugated to SureLight®—Allophycocyanin (APC, PerkinElmer-AD0059H). After centrifugation, the plate was incubated at 25° C. for 60 min. before reading on a PHERAstar FS plate reader (665 nm/620 nm ratio). Final concentrations in the assay were […], 10 nM PD-L1, 1 nM europium anti-human IgG and 20 nM anti-His-Allophycocyanin. IC50 determination was performed by fitting the curve of percent control activity versus the log of the inhibitor concentration.

T1 sequence (Q9NZQ7 19-238): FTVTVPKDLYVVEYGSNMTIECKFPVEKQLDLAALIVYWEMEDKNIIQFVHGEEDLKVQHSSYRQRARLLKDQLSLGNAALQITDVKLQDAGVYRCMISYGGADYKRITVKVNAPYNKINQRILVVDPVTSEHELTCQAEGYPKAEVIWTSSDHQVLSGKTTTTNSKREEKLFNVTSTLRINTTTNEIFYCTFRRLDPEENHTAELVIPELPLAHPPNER

Row | IC50 | Structure (SMILES)
1 | ≥ 100 nM | Cc1cn2nc(-c3cccc(-c4cccc(-c5cc6c(=O)n(CCN[C@@H](CN)C(=O)O)c(C)cn6n5)c4Cl)c3Cl)cc2c(=O)n1CCNC(CN)C(=O)O (stereo in doubt) [Compound 67, (2S,2'S)-2,2′-((((2,2′-dichloro-[1,1′-biphenyl]-3,3′-diyl)bis(6-methyl-4-oxopyrazolo[1,5-a]pyrazine-2,5(4H)-diyl))bis(ethane-2,1-diyl))bis(azanediyl))bis(3-aminopropanoic acid)]
2 | < 10 nM | Cc1c(-c2cc3c(=O)n(C[C@@H]4CCC(=O)N4)cnn3c2)cccc1-c1cccc(-c2cc3c(=O)n(C[C@@H]4CCC(=O)N4)cnn3c2)c1C [Compound 17, 6,6′-(2,2′-dimethyl-[1,1′-biphenyl]-3,3′-diyl)bis(3-(((S)-5-oxopyrrolidin-2-yl)methyl)pyrrolo[2,1-f][1,2,4]triazin-4(3H)-one)]
3 | 10 to 100 nM | O=C1CC(Cn2cnn3cc(-c4cccc(-c5cccc(-c6cc7c(=O)n(CC8CNC(=O)C8)cnn7c6)c5Cl)c4Cl)cc3c2=O)CN1 (centres unmarked) [Compound 18, 6,6′-(2,2′-dichloro-[1,1′-biphenyl]-3,3′-diyl)bis(3-((5-oxopyrrolidin-3-yl)methyl)pyrrolo[2,1-f][1,2,4]triazin-4(3H)-one)]
4 | ≥ 100 nM | O=C1NCCN1CCn1cnn2cc(-c3cccc(-c4cccc(-c5cc6c(=O)n(CCN7CCNC7=O)cnn6c5)c4Cl)c3Cl)cc2c1=O [Compound 19, 6,6′-(2,2′-dichloro-[1,1′-biphenyl]-3,3′-diyl)bis(3-(2-(2-oxoimidazolidin-1-yl)ethyl)pyrrolo[2,1-f][1,2,4]triazin-4(3H)-one)]
5 | ≥ 100 nM | O=c1c2cc(-c3cccc(-c4cccc(-c5cc6c(=O)n(CCO)cnn6c5)c4Cl)c3Cl)cn2ncn1CCO [Compound 20, 6,6′-(2,2′-dichloro-[1,1′-biphenyl]-3,3′-diyl)bis(3-(2-hydroxyethyl)pyrrolo[2,1-f][1,2,4]triazin-4(3H)-one)]
6 | ≥ 100 nM | O=c1c2cc(-c3cccc(-c4cccc(-c5cc6c(=O)n(CCn7cccn7)cnn6c5)c4Cl)c3Cl)cn2ncn1CCn1cccn1 [Compound 21, 6,6′-(2,2′-dichloro-[1,1′-biphenyl]-3,3′-diyl)bis(3-(2-(1H-pyrazol-1-yl)ethyl)pyrrolo[2,1-f][1,2,4]triazin-4(3H)-one)]
7 | 10 to 100 nM | O=c1c2cc(-c3cccc(-c4cccc(-c5cc6c(=O)n(CCn7cncn7)cnn6c5)c4Cl)c3Cl)cn2ncn1CCn1cncn1 [Compound 22, 6,6′-(2,2′-dichloro-[1,1′-biphenyl]-3,3′-diyl)bis(3-(2-(1H-1,2,4-triazol-1-yl)ethyl)pyrrolo[2,1-f][1,2,4]triazin-4(3H)-one)]
8 | ≥ 100 nM | O=C(O)Cn1cnn2cc(-c3cccc(-c4cccc(-c5cc6c(=O)n(CC(=O)O)cnn6c5)c4Cl)c3Cl)cc2c1=O [Compound 23, 2,2′-((2,2′-dichloro-[1,1′-biphenyl]-3,3′-diyl)bis(4-oxopyrrolo[2,1-f][1,2,4]triazine-6,3(4H)-diyl))diacetic acid]

Second part, the compound before the results:

Row | Structure (SMILES) | IC50
9 | O=C1CC[C@@H](Cn2cnc3sc(-c4cccc(-c5cccc(-c6cc7c(=O)n(C[C@@H]8CCC(=O)N8)cnc7s6)c5Cl)c4Cl)cc3c2=O)N1 [Compound 2, 6,6′-(2,2′-dichloro-[1,1′-biphenyl]-3,3′-diyl)bis(3-(((S)-5-oxopyrrolidin-2-yl)methyl)thieno[2,3-d]pyrimidin-4(3H)-one)] | 10 to 100 nM
10 | O=C1CCC(Cn2cnn3c(F)c(-c4cccc(-c5cccc(-c6cc7c(=O)n(CC8CCC(=O)N8)cnn7c6F)c5Cl)c4Cl)cc3c2=O)N1 (centres unmarked) [Compound 3, 6,6′-(2,2′-dichloro-[1,1′-biphenyl]-3,3′-diyl)bis(7-fluoro-3-((5-oxopyrrolidin-2-yl)methyl)pyrrolo[2,1-f][1,2,4]triazin-4(3H)-one)] | < 10 nM
11 | Cn1c(-c2cccc(-c3cccc(-c4cc5ncn(C[C@@H]6CCC(=O)N6)c(=O)c5n4C)c3Cl)c2Cl)cc2ncn(C[C@@H]3CCC(=O)N3)c(=O)c21 [Compound 4, 6,6′-(2,2′-dichloro-[1,1′-biphenyl]-3,3′-diyl)bis(5-methyl-3-(((S)-5-oxopyrrolidin-2-yl)methyl)-3,5-dihydro-4H-pyrrolo[3,2-d]pyrimidin-4-one)] | ≥ 100 nM
12 | O=C1CC[C@@H](Cn2ccn3cc(-c4cccc(-c5cccc(-c6cc7c(=O)n(C[C@@H]8CCC(=O)N8)ccn7c6)c5Cl)c4Cl)cc3c2=O)N1 [Compound 5, 7,7′-(2,2′-dichloro-[1,1′-biphenyl]-3,3′-diyl)bis(2-(((S)-5-oxopyrrolidin-2-yl)methyl)pyrrolo[1,2-a]pyrazin-1(2H)-one)] | 10 to 100 nM
13 | Cn1c(-c2cccc(-c3cccc(-c4nc5c(=O)n(C[C@@H]6CCC(=O)N6)ccc5n4C)c3Cl)c2Cl)nc2c(=O)n(C[C@@H]3CCC(=O)N3)ccc21 [Compound 6, 2,2′-(2,2′-dichloro-[1,1′-biphenyl]-3,3′-diyl)bis(1-methyl-5-(((S)-5-oxopyrrolidin-2-yl)methyl)-1,5-dihydro-4H-imidazo[4,5-c]pyridin-4-one)] | ≥ 100 nM
14 | O=C1CC[C@@H](Cn2ccn3nc(-c4cccc(-c5cccc(-c6cc7c(=O)n(C[C@@H]8CCC(=O)N8)ccn7n6)c5Cl)c4Cl)cc3c2=O)N1 [Compound 7, 2,2′-(2,2′-dichloro-[1,1′-biphenyl]-3,3′-diyl)bis(5-(((S)-5-oxopyrrolidin-2-yl)methyl)pyrazolo[1,5-a]pyrazin-4(5H)-one)] | < 10 nM
15 | O=C1CC[C@@H](Cn2ccc3sc(-c4cccc(-c5cccc(-c6cc7c(=O)n(C[C@@H]8CCC(=O)N8)ccc7s6)c5Cl)c4Cl)cc3c2=O)N1 [Compound 8, 2,2′-(2,2′-dichloro-[1,1′-biphenyl]-3,3′-diyl)bis(5-(((S)-5-oxopyrrolidin-2-yl)methyl)thieno[3,2-c]pyridin-4(5H)-one)] | 10 to 100 nM
16 | O=C1CC[C@@H](CN2CCn3cc(-c4cccc(-c5cccc(-c6cc7n(c6)CCN(C[C@@H]6CCC(=O)N6)C7=O)c5Cl)c4Cl)cc3C2=O)N1 [Compound 9, 7,7′-(2,2′-dichloro-[1,1′-biphenyl]-3,3′-diyl)bis(2-(((S)-5-oxopyrrolidin-2-yl)methyl)-3,4-dihydropyrrolo[1,2-a]pyrazin-1(2H)-one)] | ≥ 100 nM
17 | Cn1c(-c2cccc(-c3cccc(-c4nc5c(c(=O)n(C[C@@H]6CCC(=O)N6)c(=O)n5C)n4C)c3Cl)c2Cl)nc2c1c(=O)n(C[C@@H]1CCC(=O)N1)c(=O)n2C [Compound 10, 8,8′-(2,2′-dichloro-[1,1′-biphenyl]-3,3′-diyl)bis(3,7-dimethyl-1-(((S)-5-oxopyrrolidin-2-yl)methyl)-3,7-dihydro-1H-purine-2,6-dione)] | ≥ 100 nM
18 | O=C1CC[C@@H](Cn2ncn3cc(-c4cccc(-c5cccc(-c6cc7c(=O)n(C[C@@H]8CCC(=O)N8)ncn7c6)c5Cl)c4Cl)cc3c2=O)N1 [Compound 11, 7,7′-(2,2′-dichloro-[1,1′-biphenyl]-3,3′-diyl)bis(2-(((S)-5-oxopyrrolidin-2-yl)methyl)pyrrolo[1,2-d][1,2,4]triazin-1(2H)-one)] | ≥ 100 nM
19 | O=C1CC[C@@H](Cn2ccn3cc(-c4cccc(-c5cccc(-c6cn7ccn(C[C@@H]8CCC(=O)N8)c(=O)c7n6)c5Cl)c4Cl)nc3c2=O)N1 [Compound 12, 2,2′-(2,2′-dichloro-[1,1′-biphenyl]-3,3′-diyl)bis(7-(((S)-5-oxopyrrolidin-2-yl)methyl)imidazo[1,2-a]pyrazin-8(7H)-one)] | 10 to 100 nM
20 | O=C1CC[C@@H](Cn2ccn3c(F)c(-c4cccc(-c5cccc(-c6nc7c(=O)n(C[C@@H]8CCC(=O)N8)ccn7c6F)c5Cl)c4Cl)nc3c2=O)N1 [Compound 13, 2,2′-(2,2′-dichloro-[1,1′-biphenyl]-3,3′-diyl)bis(3-fluoro-7-(((S)-5-oxopyrrolidin-2-yl)methyl)imidazo[1,2-a]pyrazin-8(7H)-one)] | ≥ 100 nM
21 | O=C1CC[C@@H](Cn2cnc3[nH]c(-c4cccc(-c5cccc(-c6cc7c(=O)n(C[C@@H]8CCC(=O)N8)cnc7[nH]6)c5Cl)c4Cl)cc3c2=O)N1 [Compound 14, 6,6′-(2,2′-dichloro-[1,1′-biphenyl]-3,3′-diyl)bis(3-(((S)-5-oxopyrrolidin-2-yl)methyl)-3,7-dihydro-4H-pyrrolo[2,3-d]pyrimidin-4-one)] | 10 to 100 nM
22 | O=C1CC[C@@H](Cn2ccn3nc(-c4cccc(-c5cccc(-c6nc7c(=O)n(C[C@@H]8CCC(=O)N8)ccn7n6)c5Cl)c4Cl)nc3c2=O)N1 [Compound 15, 2,2′-(2,2′-dichloro-[1,1′-biphenyl]-3,3′-diyl)bis(7-(((S)-5-oxopyrrolidin-2-yl)methyl)-[1,24]triazolo[1,5-a]pyrazin-8(7H)-one)] | < 10 nM
23 | O=C1CCC(Cn2cc(F)n3cc(-c4cccc(-c5cccc(-c6cc7c(=O)n(CC8CCC(=O)N8)cc(F)n7c6)c5Cl)c4Cl)cc3c2=O)N1 (centres unmarked) [Compound 16, 7,7′-(2,2′-dichloro-[1,1′-biphenyl]-3,3′-diyl)bis(4-fluoro-2-((5-oxopyrrolidin-2-yl)methyl)pyrrolo[1,2-a]pyrazin-1(2H)-one)] | 10 to 100 nM
